According to PubChem BioAssay AID248 (DTP/NCI, 2004):
Inconclusive results and toxic doses are left out. Cut-off read from the data, not from the text of the source: active = T/C of 150% or more; inactive = T/C below 125%.

System: L1210 leukemia ip in BDF1 mice, survival T/C
Assay: NCI In Vivo Anticancer Drug Screen. Data for tumor model L1210 Leukemia (intraperitoneal) in B6D2F1 (BDF1) mice
Details: endpoint: mean survival time, higher = longer survival
In short: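 Tumor was transplanted into mice, which were then dosed with test compound or vehicle alone. Survival was recorded for each group, and the treated figure was expressed relative to the control figure.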

[1] = dose: 25.0 mg/kg/injection, schedule: Q01DX009 (ip), vehicle: saline with Tween-80
[2] = dose: 100.0 mg/kg/injection, schedule: Q01DX009 (ip), vehicle: saline
[3] = dose: 200.0 mg/kg/injection, schedule: Q01DX009 (ip), vehicle: saline
[4] = dose: 400.0 mg/kg/injection, schedule: Q01DX009 (ip), vehicle: saline
[5] = dose: 50.0 mg/kg/injection, schedule: Q01DX001 (ip), vehicle: saline
[6] = dose: 100.0 mg/kg/injection, schedule: Q01DX001 (ip), vehicle: saline
[7] = dose: 200.0 mg/kg/injection, schedule: Q01DX001 (ip), vehicle: saline
[8] = dose: 400.0 mg/kg/injection, schedule: Q01DX001 (ip), vehicle: saline
[9] = dose: 50.0 mg/kg/injection, schedule: Q01DX001 (ip), vehicle: carboxymethylcellulose (CMC)
[10] = dose: 50.0 mg/kg/injection, schedule: Q01DX009 (ip), vehicle: saline with Tween-80
[11] = dose: 100.0 mg/kg/injection, schedule: Q01DX001 (ip), vehicle: carboxymethylcellulose (CMC)
[12] = dose: 100.0 mg/kg/injection, schedule: Q01DX009 (ip), vehicle: saline with Tween-80
[13] = dose: 200.0 mg/kg/injection, schedule: Q01DX001 (ip), vehicle: carboxymethylcellulose (CMC)
[14] = dose: 400.0 mg/kg/injection, schedule: Q01DX001 (ip), vehicle: carboxymethylcellulose (CMC)

Measured: T/C

O=[N+]([O-])c1ccc(O)c(Br)c1
inactive: dose: 6.25 mg/kg/injection, schedule: Q01DX009 (ip), vehicle: saline with Tween-80 95 % of control | dose: 12.5 mg/kg/injection, schedule: Q01DX009 (ip), vehicle: saline with Tween-80 101 % of control | dose: 25.0 mg/kg/injection, schedule: Q01DX009 (ip), vehicle: carboxymethylcellulose (CMC) 90 % of control | [1] 93 % of control

O=C(O)CNC1CCCCC1
inactive: [2] 96 % of control | dose: 100.0 mg/kg/injection, schedule: Q04DX002 (ip), vehicle: saline 97 % of control | [3] 89 % of control | dose: 200.0 mg/kg/injection, schedule: Q04DX002 (ip), vehicle: saline 102 % of control | [4] 96 % of control | dose: 400.0 mg/kg/injection, schedule: Q04DX002 (ip), vehicle: saline 97 % of control

Cc1cn(C2CC(O)C(CO)O2)c(=O)n(Cc2ccccc2)c1=O (centres undefined)
inactive: [5] 108 % of control | [6] 108 % of control | [7] 98 % of control | [8] 108 % of control

CC1COCC(C)N1C1=C(Cl)C(=O)c2ccccc2C1=O (centres undefined)
inactive: dose: 12.5 mg/kg/injection, schedule: Q01DX001 (ip), vehicle: carboxymethylcellulose (CMC) 98 % of control | dose: 25.0 mg/kg/injection, schedule: Q01DX001 (ip), vehicle: carboxymethylcellulose (CMC) 98 % of control

CCCCCCCCCC(=O)CCC
inactive: [2] 100 % of control | dose: 100.0 mg/kg/injection, schedule: Q04DX003 (ip), vehicle: saline 111 % of control | [3] 96 % of control | dose: 200.0 mg/kg/injection, schedule: Q04DX003 (ip), vehicle: saline 97 % of control | [4] 98 % of control | dose: 400.0 mg/kg/injection, schedule: Q04DX003 (ip), vehicle: saline 105 % of control

CCC1CC(C#N)C(=O)NC1=O (centres undefined)
inactive: dose: 6.25 mg/kg/injection, schedule: Q01DX009 (ip), vehicle: saline 93 % of control | dose: 12.5 mg/kg/injection, schedule: Q01DX001 (ip), vehicle: saline 108 % of control | dose: 12.5 mg/kg/injection, schedule: Q01DX009 (ip), vehicle: saline 91 % of control | dose: 12.5 mg/kg/injection, schedule: Q04DX003 (ip), vehicle: saline 100 % of control | dose: 25.0 mg/kg/injection, schedule: Q01DX001 (ip), vehicle: saline 100 % of control | dose: 25.0 mg/kg/injection, schedule: Q01DX009 (ip), vehicle: saline 93 % of control | dose: 25.0 mg/kg/injection, schedule: Q04DX003 (ip), vehicle: saline 92 % of control | [5] 110 % of control

CN(C)c1ccc(/C=C/C(=O)c2ccc([N+](=O)[O-])cc2)c(Cl)c1
inactive: dose: 100.0 mg/kg/injection, schedule: Q04DX003 (ip), vehicle: Klucel (hydroxypropylcellulose) (HPC) 92 % of control | dose: 200.0 mg/kg/injection, schedule: Q04DX003 (ip), vehicle: Klucel (hydroxypropylcellulose) (HPC) 97 % of control | dose: 400.0 mg/kg/injection, schedule: Q04DX003 (ip), vehicle: Klucel (hydroxypropylcellulose) (HPC) 97 % of control

N#Cc1ccc(CCCCCCc2ccc(C#N)cc2)cc1
inactive: [1] 95 % of control | [9] 101 % of control | [10] 95 % of control | [11] 106 % of control | [12] 94 % of control | [13] 110 % of control | [14] 120 % of control

O=C1c2ccccc2C(F)(F)c2ccccc21
inactive: dose: 100.0 mg/kg/injection, schedule: Q01DX009 (ip), vehicle: Klucel (hydroxypropylcellulose) (HPC) 110 % of control | dose: 200.0 mg/kg/injection, schedule: Q01DX009 (ip), vehicle: Klucel (hydroxypropylcellulose) (HPC) 100 % of control | dose: 400.0 mg/kg/injection, schedule: Q01DX009 (ip), vehicle: Klucel (hydroxypropylcellulose) (HPC) 101 % of control

O=c1[nH]c(=O)c2nccnc2[nH]1
inactive: dose: 25.0 mg/kg/injection, schedule: Q01DX009 (ip), vehicle: water 109 % of control | dose: 50.0 mg/kg/injection, schedule: Q01DX009 (ip), vehicle: water 111 % of control | dose: 100.0 mg/kg/injection, schedule: Q01DX009 (ip), vehicle: water 104 % of control | dose: 200.0 mg/kg/injection, schedule: Q01DX009 (ip), vehicle: water 101 % of control

C(=C\c1ccc2ccccc2n1)/c1ccccc1
inactive: [10] 119 % of control | [6] 103 % of control | [12] 94 % of control | [7] 106 % of control | dose: 200.0 mg/kg/injection, schedule: Q01DX009 (ip), vehicle: saline with Tween-80 109 % of control | [8] 109 % of control

CCCCCCCCCC(C)(O)C#CC(C)(O)CCCCCCCCC (centres undefined)
inactive: [9] 93 % of control | dose: 50.0 mg/kg/injection, schedule: Q04DX003 (ip), vehicle: carboxymethylcellulose (CMC) 91 % of control | [11] 95 % of control | dose: 100.0 mg/kg/injection, schedule: Q04DX003 (ip), vehicle: carboxymethylcellulose (CMC) 89 % of control | [13] 91 % of control | dose: 200.0 mg/kg/injection, schedule: Q04DX003 (ip), vehicle: carboxymethylcellulose (CMC) 89 % of control | [14] 100 % of control

CCNC(=O)SCCSC(=O)NCC
inactive: dose: 100.0 mg/kg/injection, schedule: Q01DX009 (ip), vehicle: other 92 % of control | dose: 200.0 mg/kg/injection, schedule: Q01DX009 (ip), vehicle: other 93 % of control | dose: 400.0 mg/kg/injection, schedule: Q01DX009 (ip), vehicle: other 92 % of control

N#CCc1ccccc1NC(=O)CCl
inactive: dose: 100.0 mg/kg/injection, schedule: Q01DX001 (ip), vehicle: saline with Tween-80 100 % of control | dose: 200.0 mg/kg/injection, schedule: Q01DX001 (ip), vehicle: saline with Tween-80 106 % of control | dose: 400.0 mg/kg/injection, schedule: Q01DX001 (ip), vehicle: saline with Tween-80 108 % of control

COC1OC(CI)C(OC(=O)c2ccccc2)C(OC(=O)c2ccccc2)C1OC(=O)c1ccccc1 (centres undefined)
inactive: dose: 100.0 mg/kg/injection, schedule: Q04DX002 (ip), vehicle: Klucel (hydroxypropylcellulose) (HPC) 101 % of control | dose: 200.0 mg/kg/injection, schedule: Q04DX002 (ip), vehicle: Klucel (hydroxypropylcellulose) (HPC) 93 % of control | dose: 400.0 mg/kg/injection, schedule: Q04DX002 (ip), vehicle: Klucel (hydroxypropylcellulose) (HPC) 121 % of control
